Experimental data reported in ChEMBL document CHEMBL1671734, “An ertapenem-resistant extended-spectrum-beta-lactamase-producing Klebsiella pneumoniae clone carries a novel OmpK36 porin variant” (2010).
≈ marks a conversion by molar mass, not a printed value.

Assays:
Type in all cases: functional
Klebsiella pneumoniae [1] = assay: Antimicrobial activity against ESBL-positive Klebsiella pneumoniae 17829 by microdilution method
Klebsiella pneumoniae [2] = assay: Antimicrobial activity against ESBL-positive Klebsiella pneumoniae 29830 harboring porin OmpK36V mutant gene by microdilution method
Klebsiella pneumoniae [3] = assay: Antimicrobial activity against ESBL-positive Klebsiella pneumoniae 31750 harboring porin OmpK36 gene by microdilution method
Klebsiella pneumoniae [4] = assay: Antimicrobial activity against ESBL-positive Klebsiella pneumoniae 50748 harboring porin OmpK36 gene by microdilution method
Klebsiella pneumoniae [5] = assay: Antimicrobial activity against ESBL-positive Klebsiella pneumoniae 17834 harboring porin OmpK36V mutant gene by microdilution method
Klebsiella pneumoniae [6] = assay: Antimicrobial activity against ESBL-positive Klebsiella pneumoniae 18260 harboring pSHA2-encoded porin OmpK36 gene by microdilution method
Klebsiella pneumoniae [7] = assay: Antimicrobial activity against ESBL-positive Klebsiella pneumoniae 17830 harboring porin OmpK36V mutant gene by microdilution method
Klebsiella pneumoniae [8] = assay: Antimicrobial activity against ESBL-positive Klebsiella pneumoniae 69036 harboring porin OmpK36V mutant gene by microdilution method
Klebsiella pneumoniae [9] = assay: Antimicrobial activity against ESBL-positive Klebsiella pneumoniae 17829 harboring pSHA2-encoded porin OmpK36 gene by microdilution method
Klebsiella pneumoniae [10] = assay: Antimicrobial activity against ESBL-positive Klebsiella pneumoniae 25008 by microdilution method
Klebsiella pneumoniae [11] = assay: Antimicrobial activity against ESBL-positive Klebsiella pneumoniae 71697 harboring porin OmpK36V mutant gene by microdilution method
Klebsiella pneumoniae [12] = assay: Antimicrobial activity against ESBL-positive Klebsiella pneumoniae 287942 harboring porin OmpK36 gene by microdilution method
Klebsiella pneumoniae [13] = assay: Antimicrobial activity against ESBL-positive Klebsiella pneumoniae 69928 harboring porin OmpK36V mutant gene by microdilution method
Klebsiella pneumoniae [14] = assay: Antimicrobial activity against ESBL-positive Klebsiella pneumoniae 26077 harboring porin OmpK36V mutant gene by microdilution method
Klebsiella pneumoniae [15] = assay: Antimicrobial activity against ESBL-positive Klebsiella pneumoniae 17049 harboring porin OmpK36V mutant gene by microdilution method
Klebsiella pneumoniae [16] = assay: Antimicrobial activity against ESBL-positive Klebsiella pneumoniae 19039 harboring porin OmpK36V mutant gene by microdilution method
Klebsiella pneumoniae [17] = assay: Antimicrobial activity against ESBL-negative Klebsiella pneumoniae 299332 harboring porin OmpK36 gene by microdilution method
Klebsiella pneumoniae [18] = assay: Antimicrobial activity against ESBL-positive Klebsiella pneumoniae 29459 harboring porin OmpK36 gene by microdilution method
Klebsiella pneumoniae [19] = assay: Antimicrobial activity against ESBL-positive Klebsiella pneumoniae 18918 harboring porin OmpK36V mutant gene by microdilution method
Klebsiella pneumoniae [20] = assay: Antimicrobial activity against ESBL-positive Klebsiella pneumoniae 6267 harboring porin OmpK36V mutant gene by microdilution method
Klebsiella pneumoniae [21] = assay: Antimicrobial activity against ESBL-positive Klebsiella pneumoniae 16855 harboring porin OmpK36 and OmpK35 genes by Etest by microdilution method
Klebsiella pneumoniae [22] = assay: Antimicrobial activity against ESBL-positive Klebsiella pneumoniae 16830 harboring porin OmpK36 gene by microdilution method
Klebsiella pneumoniae [23] = assay: Antimicrobial activity against ESBL-negative Klebsiella pneumoniae 30018 harboring porin OmpK35 gene by microdilution method
Klebsiella pneumoniae [24] = assay: Antimicrobial activity against ESBL-positive Klebsiella pneumoniae 18260 by microdilution method
Klebsiella pneumoniae [25] = assay: Antimicrobial activity against ESBL-positive Klebsiella pneumoniae 11932 harboring porin OmpK36 gene by microdilution method
Klebsiella pneumoniae [26] = assay: Antimicrobial activity against ESBL-positive Klebsiella pneumoniae 18567 harboring porin OmpK36V mutant gene by microdilution method

SMILES: C[C@@H](O)[C@H]1C(=O)N2C(C(=O)O)=C(S[C@@H]3CN[C@H](C(=O)Nc4cccc(C(=O)O)c4)C3)[C@H](C)[C@H]12 [ERTAPENEM]
- MIC (Klebsiella pneumoniae [1]): 128 µg/mL (≈ 269 µM)
- MIC (Klebsiella pneumoniae [2]): 6 µg/mL (≈ 12.6 µM)
- MIC (Klebsiella pneumoniae [3]): 0.125 µg/mL (≈ 0.263 µM)
- MIC (Klebsiella pneumoniae [4]): 0.25 µg/mL (≈ 0.526 µM)
- MIC (Klebsiella pneumoniae [5]): 6 µg/mL (≈ 12.6 µM)
- MIC (Klebsiella pneumoniae [6]): 16 µg/mL (≈ 33.6 µM)
- MIC (Klebsiella pneumoniae [7]): 8 µg/mL (≈ 16.8 µM)
- MIC (Klebsiella pneumoniae [8]): 6 µg/mL (≈ 12.6 µM)
- MIC (Klebsiella pneumoniae [9]): 16 µg/mL (≈ 33.6 µM)
- MIC (Klebsiella pneumoniae [10]): 16 µg/mL (≈ 33.6 µM)
- MIC (Klebsiella pneumoniae [11]): 8 µg/mL (≈ 16.8 µM)
- MIC (Klebsiella pneumoniae [12]): 0.19 µg/mL (≈ 0.4 µM)
- MIC (Klebsiella pneumoniae [13]): 6 µg/mL (≈ 12.6 µM)
- MIC (Klebsiella pneumoniae [14]): 6 µg/mL (≈ 12.6 µM)
- MIC (Klebsiella pneumoniae [15]): 8 µg/mL (≈ 16.8 µM)
- MIC (Klebsiella pneumoniae [16]): 8 µg/mL (≈ 16.8 µM)
- MIC (Klebsiella pneumoniae [17]): 0.016 µg/mL (≈ 0.0336 µM)
- MIC (Klebsiella pneumoniae [18]): 0.25 µg/mL (≈ 0.526 µM)
- MIC (Klebsiella pneumoniae [19]): 8 µg/mL (≈ 16.8 µM)
- MIC (Klebsiella pneumoniae [20]): 4 µg/mL (≈ 8.41 µM)
- MIC (Klebsiella pneumoniae [21]): 0.094 µg/mL (≈ 0.198 µM)
- MIC (Klebsiella pneumoniae [22]): 0.125 µg/mL (≈ 0.263 µM)
- MIC (Klebsiella pneumoniae [23]): 0.023 µg/mL (≈ 0.0484 µM)
- MIC (Klebsiella pneumoniae [24]): 128 µg/mL (≈ 269 µM)
- MIC (Klebsiella pneumoniae [25]): 0.19 µg/mL (≈ 0.4 µM)
- MIC (Klebsiella pneumoniae [26]): 6 µg/mL (≈ 12.6 µM)
